16 compounds from patent publication US9783536B2, “Nitrogen-containing heterocyclic compound or salt thereof” (FUJIFILM Corporation, priority 2013, dated 2017) can be followed below.

Format in all cases: biochemical
In one test the target is T1, human PI3Kα protein (Homo sapiens, UniProt P42336).
T1 construct: purchased Carna Biosciences, Inc; host or cells: baculovirus expression system
The test is described as follows: PI3Kα enzyme assay (ADP-Glo). As to conditions: 4.5 nmol/L PI3Kα, PIP2 50 μmol/L, ATP 100 μmol/L; read-out: PI3Kα enzyme inhibitory activity. In outline: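 Biotinylated human PI3Kα (baculovirus-expressed, 4.5 nmol/L) pre-incubated 15 min with compound in Tris-HCl pH 7.5, MgCl2, BSA; reaction 60 min at 25° C with 50 μmol/L PIP2 and 100 μmol/L ATP final. ADP quantified by ADP-Glo luminescence; IC50 calculated.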

Test [1] addresses T2, GST fusion human ERK2 protein (Homo sapiens, UniProt P28482).
T2 construct: purchased Carna Biosciences, Inc; host or cells: E. coli expression system
The test is described as follows: ERK2 enzyme assay (1). As to conditions: 2.5 nmol/L ERK2, ATP 43.1 μmol/L; read-out: ERK2 enzyme inhibitory activity (1). In outline: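 Enzyme (2.5 nmol/L, E. coli-expressed) preincubated with compound 15 min at room temperature in HEPES/MgCl2/DTT/Brij35 buffer, pH 7.5; reaction with 4.25 μmol/L FL-Peptide 8 and 43.1 μmol/L ATP for 120 min at 25 °C. Phosphorylated peptide fraction quantified by mobility-shift separation after EDTA stop; IC50 calculated.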

The target of test [2] is T2, GST fusion human ERK2 protein. The test is described as follows: ERK2 enzyme assay (2). As to conditions: 1.25 nmol/L ERK2, ATP 1 mmol/L; read-out: ERK2 enzyme inhibitory activity (2). In outline: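 GST-tagged human ERK2 expressed in E. coli (1.25 nmol/L) was preincubated with compound for 15 min at room temperature in pH 7.5 Hepes buffer with MgCl2, DTT and Brij35. Reaction with FL-Peptide 8 (final 4.25 μmol/L) and ATP (final 1 mmol/L) ran 120 min at 25 °C; EDTA stopped it, and phosphorylated peptide was quantified by mobility-shift separation to derive IC50.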

pIC50: −log10 of the molar value. Some results are limits rather than exact numbers.

T1 sequence (P42336 whole entry): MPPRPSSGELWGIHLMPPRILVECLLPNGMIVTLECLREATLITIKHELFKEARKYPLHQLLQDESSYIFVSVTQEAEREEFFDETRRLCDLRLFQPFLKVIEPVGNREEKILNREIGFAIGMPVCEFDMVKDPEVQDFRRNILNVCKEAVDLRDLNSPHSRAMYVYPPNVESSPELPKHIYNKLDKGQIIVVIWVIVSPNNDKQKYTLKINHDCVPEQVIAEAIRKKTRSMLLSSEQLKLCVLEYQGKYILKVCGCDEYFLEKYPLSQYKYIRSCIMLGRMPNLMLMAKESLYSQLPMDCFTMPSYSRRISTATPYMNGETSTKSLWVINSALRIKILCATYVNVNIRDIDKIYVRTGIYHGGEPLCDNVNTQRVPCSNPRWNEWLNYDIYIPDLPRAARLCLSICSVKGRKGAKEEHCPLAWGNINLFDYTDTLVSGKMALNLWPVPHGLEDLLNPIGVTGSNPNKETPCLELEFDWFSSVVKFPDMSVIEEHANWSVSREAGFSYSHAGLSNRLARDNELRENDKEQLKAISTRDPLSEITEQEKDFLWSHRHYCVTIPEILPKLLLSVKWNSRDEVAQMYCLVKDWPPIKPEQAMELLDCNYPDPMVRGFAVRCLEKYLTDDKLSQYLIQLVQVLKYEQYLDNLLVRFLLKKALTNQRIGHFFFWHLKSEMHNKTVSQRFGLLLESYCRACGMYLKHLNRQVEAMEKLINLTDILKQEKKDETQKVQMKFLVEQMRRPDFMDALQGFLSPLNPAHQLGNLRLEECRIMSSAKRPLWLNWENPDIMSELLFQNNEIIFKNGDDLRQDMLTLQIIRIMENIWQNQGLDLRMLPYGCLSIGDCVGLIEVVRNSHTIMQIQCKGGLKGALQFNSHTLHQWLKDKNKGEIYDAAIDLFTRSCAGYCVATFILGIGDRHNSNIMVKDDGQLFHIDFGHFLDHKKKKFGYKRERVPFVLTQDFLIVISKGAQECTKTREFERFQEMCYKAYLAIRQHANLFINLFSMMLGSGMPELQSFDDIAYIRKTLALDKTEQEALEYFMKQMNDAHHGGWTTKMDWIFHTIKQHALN
T1 sequence (P27986 whole entry partner): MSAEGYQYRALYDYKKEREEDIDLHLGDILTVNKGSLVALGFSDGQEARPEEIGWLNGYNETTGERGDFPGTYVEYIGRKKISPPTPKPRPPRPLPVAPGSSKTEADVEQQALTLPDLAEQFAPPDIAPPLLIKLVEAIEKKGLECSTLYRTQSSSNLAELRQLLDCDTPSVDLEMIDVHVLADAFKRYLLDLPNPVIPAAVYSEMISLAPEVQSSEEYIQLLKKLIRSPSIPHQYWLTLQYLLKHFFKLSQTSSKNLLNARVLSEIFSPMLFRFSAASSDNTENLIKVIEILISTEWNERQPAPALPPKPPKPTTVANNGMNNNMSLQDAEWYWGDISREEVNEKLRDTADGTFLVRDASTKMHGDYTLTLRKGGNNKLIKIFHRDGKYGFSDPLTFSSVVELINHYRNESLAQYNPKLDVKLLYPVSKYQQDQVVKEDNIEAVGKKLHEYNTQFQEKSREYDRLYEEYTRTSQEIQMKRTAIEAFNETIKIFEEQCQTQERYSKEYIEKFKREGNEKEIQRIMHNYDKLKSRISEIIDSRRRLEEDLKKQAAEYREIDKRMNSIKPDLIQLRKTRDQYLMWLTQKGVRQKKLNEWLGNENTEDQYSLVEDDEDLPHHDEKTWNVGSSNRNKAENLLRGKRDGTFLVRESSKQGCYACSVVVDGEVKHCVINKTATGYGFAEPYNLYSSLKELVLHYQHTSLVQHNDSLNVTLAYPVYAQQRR
T2 sequence (P28482 whole entry, the tested form may be a part): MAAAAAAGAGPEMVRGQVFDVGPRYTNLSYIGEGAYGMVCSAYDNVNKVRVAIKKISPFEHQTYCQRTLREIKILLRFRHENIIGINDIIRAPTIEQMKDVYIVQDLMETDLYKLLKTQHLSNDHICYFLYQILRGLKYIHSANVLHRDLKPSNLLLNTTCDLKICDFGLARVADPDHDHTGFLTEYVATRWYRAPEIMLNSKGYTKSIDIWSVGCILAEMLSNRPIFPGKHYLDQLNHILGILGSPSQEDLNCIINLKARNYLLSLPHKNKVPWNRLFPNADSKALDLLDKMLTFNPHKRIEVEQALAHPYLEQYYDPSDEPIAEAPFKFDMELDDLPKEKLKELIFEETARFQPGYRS

Take `Cc1nn(C)cc1-c1cnc2ccc(Nc3nnc(C(C)C)s3)nc2c1` [Example 0120]: the pIC50 (at human PI3Kα protein; in test [1]; in test [2]) was over 6.00 each time.

As for `CCc1nn(C)cc1-c1cnc2ccc(Nc3nnc(C(C)C)s3)nc2c1` [Example 0121], the pIC50 (at human PI3Kα protein; in test [1]; in test [2]) was over 6.00 throughout.

`CC(C)c1nnc(Nc2ccc3ncc(-c4cn(C)nc4-c4ccccc4)cc3n2)s1` [Example 0124, 5-isopropyl-N-(7-(1-methyl-3-phenyl-1H-pyrazol-4-yl)-1,5-naphthyridin-2-yl)-1,3,4-thiadiazole-2-amine]: the pIC50 is over 6.00 on human PI3Kα protein, over 6.00 in test [1] and 5.00 to 6.00 in test [2].

As for `Cn1cc(-c2cnc3ccc(Nc4nnc(C5CCCC5)s4)nc3c2)c(-c2ccccc2)n1` [Example 0129, 5-cyclopentyl-N-(7-(1-methyl-3-phenyl-1H-pyrazol-4-yl)-1,5-naphthyridin-2-yl)-1,3,4-thiadiazole-2-amine], the pIC50 at human PI3Kα protein is over 6.00; in test [1], over 6.00; in test [2], 5.00 to 6.00.

On to `COc1nn(C)cc1-c1cnc2ccc(Nc3nnc(C(C)C)s3)nc2c1` [Example 0131], for which the pIC50 (at human PI3Kα protein; in test [1]; in test [2]) was over 6.00 each time.

`Cn1cc(-c2cnc3ccc(Nc4nnc(C5CCCC5)s4)nc3c2)c(C2CC2)n1` [Example 0132]: the pIC50 (on human PI3Kα protein; in test [1]; in test [2]) was over 6.00 throughout.

Regarding `CC(C)c1nnc(Nc2ccc3ncc(-c4cn(C)nc4C4CC4)cc3n2)s1` [Example 0133], the pIC50 (at human PI3Kα protein; in test [1]; in test [2]) was over 6.00 throughout.

For `CC(C)c1nnc(Nc2ccc3ncc(-c4cn(C)nc4-c4cccnc4)cc3n2)s1` [Example 0134], the pIC50 (at human PI3Kα protein; in test [1]; in test [2]) was over 6.00 each time.

Consider `CC(C)c1nnc(Nc2ccc3ncc(-c4cn(C)nc4-c4ccncc4)cc3n2)s1` [Example 0135], for which the pIC50 at human PI3Kα protein is over 6.00; in test [1], over 6.00; in test [2] it was 5.00 to 6.00.

Take `CC(C)Cc1nn(C)cc1-c1cnc2ccc(Nc3nnc(C(C)C)s3)nc2c1` [Example 0138]: the pIC50 (at human PI3Kα protein; in test [1]; in test [2]) was over 6.00 throughout.

Turning to `COCc1nn(C)cc1-c1cnc2ccc(Nc3nnc(C(C)C)s3)nc2c1` [Example 0142], the pIC50 (at human PI3Kα protein; in test [1]; in test [2]) was over 6.00 in each case.

Take `CCCc1nn(CCCN2CCCC2)cc1-c1cnc2ccc(Nc3nnc(C(C)C)s3)nc2c1` [Example 0147]: the pIC50 (on human PI3Kα protein; in test [1]; in test [2]) was over 6.00 in each case.

As for `CCOc1nn(C)cc1-c1cnc2ccc(Nc3nnc(C(C)C)s3)nc2c1` [Example 0150], the pIC50 on human PI3Kα protein was over 6.00; in test [1] it was over 6.00; in test [2], 5.00 to 6.00.

For the compound `Cc1ccc(Nc2ccc3ncc(-c4cnn(C)c4)cc3n2)nn1` [Example 0151], the results for the pIC50 (at human PI3Kα protein; in test [1]; in test [2]) were 4.30 to 5.00, over 6.00 and 5.00 to 6.00, respectively.

On to `COc1cncc(Nc2cnc3ccc(Nc4cc(C)cnn4)nc3c2)c1` [Example 0157, N^7-(5-methoxypyridin-3-yl)-N^2-(5-methylpyridazin-3-yl)-1,5-naphthyridine-2,7-diamine], for which the pIC50 (at human PI3Kα protein; in test [1]; in test [2]) was over 6.00 throughout.

As for `Cc1cnnc(Nc2ccc3ncc(Nc4cncc(OCCN5CCOCC5)c4)cc3n2)c1` [Example 0158, N^2-(5-methylpyridazin-3-yl)-N^7-(5-(2-morpholinoethoxyl)pyridin-3-yl)-1,5-naphthyridine-2,7-diamine], the pIC50 at human PI3Kα protein is over 6.00; in test [1], over 6.00; in test [2], 5.00 to 6.00.
